Data on one compound can be found in US20250299796A1, “COMPOSITIONS AND METHODS FOR TREATING AND/OR CHARACTERIZING HEMATOLOGICAL MALIGNANCIES AND PRECURSOR CONDITIONS” (Dana-Farber Cancer Institute, Inc., priority 2021, published 2025).

The test system of data set [1] is patients with high-risk smoldering multiple myeloma (SMM). Put plainly: Phase II trial (E-PRISM): safety and tolerability, adverse events graded by CTCAE v4.0. As to conditions: in vivo. The procedure:
In the treatment schema a cycle is defined as 28 consecutive days. In cycles 1 and 2, 10 mg/kg of intravenous push Elotuzumab were administered on days 1, 8, 15, and 22. In cycles 3-4, it was administered on days 1 and 15. A 25 mg dose of oral Lenalidomide was administered on days 1-21 of each cycle. In Arm A, 40 mg of oral Dexamethasone were administered on days 1, 8, 15, and 22 in cycles 1 and 2 and on days 1, 8, and 15 in cycles 3-8. Patients on maintenance treatment (cycles 9-24) were administered 20 mg/kg of intravenous push Elotuzumab on day 1 and 15 mg oral Lenalidomide on days 1-21. All patients received thromboprophylaxis.
Toxicities were monitored throughout the study and for up to 30 days after the last dose of the study drug. Adverse events (AEs) were graded according to the National Cancer Institute Common Terminology Criteria for Adverse Events (CTCAE; version 4.0; Bethesda, MD). In addition, neuropathy symptoms were assessed using the FACT/GOG-Neuropathy questionnaire (Version 4.0). Efficacy was measured using the IWMG criteria for response^31.
Forty-nine patients experienced at least one toxicity while on study with worst grades of 1-mild (n=0), 2-moderate (n=11/51, 22%), and 3-severe (n=29/51, 57%), 4-life threatening (n=7/51, 14%), and 5-fatal (n=2/51, 4%). […]

For data set [2], the system named is immune system in patients with SMM. The following applies: trial of Lenalidomide and Dexamethasone; cited from earlier work.

In the case of `C[C@@H]1C[C@H]2[C@@H]3CCC4=CC(=O)C=C[C@]4(C)[C@@]3(F)[C@@H](O)C[C@]2(C)[C@@]1(O)C(=O)CO` [Dexamethasone], the “Effect of Dexamethasone dose on type or frequency of treatment-related toxicities” value in data set [1] is reported as “no effect”. Further, in data set [2], the “Effect of once weekly high-dose Dexamethasone on the immune system” value is on record as “does not have a detrimental effect”.
